Measurements taken from a melting point compilation (Tetko et al.).

Row | SMILES | melting point [°C]
1 | Nc1nc(-c2ccc3ccccc3n2)n[nH]1 | 297 to 299
2 | NCCCc1n[nH]c(N)c1-c1nc2ccccc2s1 | 313 to 315
3 | COC(=O)c1ccccc1NC(=O)CBr | 78 to 80
4 | CC(C)(C)NC(=O)Cc1ccc(N)cc1 | 113 to 115
5 | CN(C)S(=O)(=O)c1cccc(N)c1 | 125 to 127
6 | CC1CN(Cc2ccc(C(=O)O)cc2)CCO1 (configuration not stated) | 186 to 188
7 | CCC(CO)NC(=O)Cc1ccc(N)cc1 (configuration not stated) | 107 to 109
8 | O=C(O)CNc1ccccc1Cl | 173 to 175
9 | CCn1nccc1C=CC(=O)O | 151 to 153
10 | Cc1[nH]c(=O)[nH]c(=O)c1CO | 326 to 328
11 | COCCn1c(C)cc(C(=O)CCl)c1C | 87 to 91
12 | COC(=O)C1=NOC(C(=O)O)C1 (configuration not stated) | 83 to 85
13 | O=C(O)CCN1C(=O)C2CCCCC2C1=O (configuration not stated) | 81 to 83
14 | CC(=O)Nc1c(Cl)cc(Br)c2ccccc12 | 227 to 229
15 | O=S(=O)(Cl)C1c2ccccc2-c2ccccc21 | 84 to 86
16 | Cc1ccccc1C=NO | 38 to 40
17 | CNC1CCCCNC1=O (configuration not stated) | 234 to 236
18 | Cc1cc(N)nn1-c1ccc(Cl)c(Cl)c1 | 124 to 126
19 | CC(C)CC1(C)NC(=O)NC1=O (configuration not stated) | 145 to 147
20 | Nc1cccc(NC(=O)c2ccoc2)c1 | 120 to 122
21 | COc1cc(Br)c2c(c1)NC(=O)C2=O | 179 to 181
22 | O=C(O)[C@@H]1CCCN1C(=O)c1ccccn1 | 165 to 167
23 | CCc1nc(N)sc1C(=O)OC | 181 to 183
24 | Cc1[nH]c2ccccc2c1C1CCNCC1 | 222 to 224
25 | Nc1ccc(OCc2cn3ccccc3n2)cc1 | 146 to 148

Row | SMILES | melting point [°C]
26 | CC(Cl)C(=O)NCC1CCCCC1 (configuration not stated) | 83 to 85
27 | O=Cc1ccc(-c2ccccc2F)o1 | 66 to 68
28 | COC(=O)c1c(O)cc(=O)n2c1CCCCC2 | 222 to 224
29 | O=C1CNC2CCCCC2N1 (configuration not stated) | 121 to 123
30 | Cc1cc(C#N)ccc1Oc1ccc(C(=O)O)cc1 | 212 to 214
31 | N=c1ccc2sc(N)nc2[nH]1 | 193 to 195
32 | Cc1cc(C(=O)O)cc(C)c1OCc1cccnc1 | 182 to 184
33 | CC(=O)NC1=NN(C(C)=O)C(C)(c2ccccc2)S1 (configuration not stated) | 223 to 225
34 | NC(=O)c1coc2ccccc12 | 144 to 146
35 | COC(=O)C1CCN(c2nccc3sccc23)CC1 | 83 to 85
36 | OC1CNCC1N1CCCC1 (configuration not stated) | 82 to 84
37 | Cc1cc(C(=O)CCl)c(C)n1-c1ccc(S(N)(=O)=O)cc1 | 241 to 243
38 | CCOC(=O)C(NS(=O)(=O)CC)C(=O)OCC | 51 to 53
39 | CCNS(=O)(=O)c1ccc2c(c1)NCC2 | 112 to 114
40 | CN(C(=O)c1cccc(N)c1)c1ccccc1 | 144 to 146
41 | Nc1nnc(CC2CC2)o1 | 141 to 143
42 | CC(=O)c1cnn(Cc2ccccc2)c1 | 61 to 63
43 | O=C1C=C(Br)C(=O)N1 | 151 to 153
44 | COC(=O)CS(=O)c1ccc(Br)cc1 (configuration not stated) | 84 to 86
45 | Brc1ncnc2ccccc12 | 94 to 96
46 | N#Cc1ccc(S(=O)(=O)CCCl)cc1 | 116 to 118
47 | O=C(c1cc(S(=O)(=O)Cl)c[nH]1)N1CCCC1 | 191 to 193
48 | CCOCCOc1c(N)cccc1Cl | 65 to 67
49 | Cc1nn(-c2cccc(F)c2)c(C(F)F)c1C(=O)O | 187 to 189
50 | O=C(CCl)NCc1ccccc1COc1ccccc1 | 100 to 102

Row | SMILES | melting point [°C]
51 | Cc1cc(NS(=O)(=O)c2cccc(C#N)c2)no1 | 159 to 161
52 | NC(=NO)c1ccc(OCc2cccnc2)cc1 | 165 to 167
53 | Nc1ccc(Cl)cc1C(=O)Nc1ccc(Cl)cn1 | 177 to 179
54 | CNc1scnc1C(=O)O | 99 to 101
55 | Nc1nc2ccc(C(F)(F)F)cc2[nH]1 | 134 to 136
56 | COC(=O)c1cc(N)cc(S(C)(=O)=O)c1 | 194 to 196
57 | CC(=O)c1cc(F)c(N)c(F)c1 | 69 to 71
58 | CN(C1CC1)S(=O)(=O)c1ccc(N)cc1 | 131 to 133
59 | COc1cc(CN2CCNCC2)cc(OC)c1OC | 102 to 104
60 | CN(C)S(=O)(=O)c1cc(NC(=O)CCl)ccc1Cl | 183 to 185
61 | Cc1ccc(-c2nc(CC(=O)O)cs2)c(C)c1 | 104 to 106
62 | CC1Cc2cc(S(=O)(=O)Cl)ccc2O1 (configuration not stated) | 73 to 75
63 | Oc1ccc(Sc2ccncc2)cc1 | 239 to 241
64 | Cn1c(Cl)nc2ccccc2c1=O | 109 to 111
65 | CC(Cl)C(=O)NC(N)=O (configuration not stated) | 159 to 161
66 | O=C(O)c1ccccc1SC(F)F | 114 to 116
67 | NC(=NO)c1ccc2c(c1)CCO2 | 215 to 217
68 | CNCCOc1ccc(OCc2ccccc2)cc1 | 44 to 46
69 | Cc1c(NCC(C)(C)C)cccc1C(=O)O | 135 to 137
70 | NS(=O)(=O)c1ccccc1O | 135 to 137
71 | Cc1cccn2cc(COc3ccc(C=O)cc3)nc12 | 122 to 124
72 | NC(C(=O)O)(c1ccccc1F)C(F)(F)F (configuration not stated) | 113 to 115
73 | Clc1noc(-c2ccco2)n1 | 73 to 75
74 | O=C(c1ccc(F)cc1)c1cccnc1 | 92 to 94
75 | O=C(O)C=CC1CCOCC1 | 134 to 136

Row | SMILES | melting point [°C]
76 | COc1cccc(C(N)=NO)c1 | 103 to 105
77 | N#CC1CC(=O)N(c2ccccc2)C1 (configuration not stated) | 138 to 140
78 | Nc1c(NCC2CCCO2)c(=O)[nH]c(=O)n1Cc1ccccc1 (configuration not stated) | 221 to 223
79 | OCCOc1ccc(Br)cn1 | 51 to 53
80 | Cc1ccc(-c2nc(N)sc2CC(=O)O)cc1C | 265 to 267
81 | CC1CCN(C(=O)c2ccccc2N)CC1 | 59 to 61
82 | CCOC(=O)CC(C)(O)c1cccc(O)c1 (configuration not stated) | 85 to 87
83 | COC(=O)c1ccc(NS(=O)(=O)c2ccc(C)cc2)cc1 | 150 to 152
84 | CCCCN(C(=O)CCl)c1c(N)n(CCC)c(=O)[nH]c1=O | 229 to 231
85 | CS(=O)(=O)Nc1ccccc1CC(=O)O | 126 to 128
86 | O=C(Cc1cccc(F)c1)c1cccc(F)c1 | 49 to 51
87 | CC(C)NC(CCO)C1CCCCC1 (configuration not stated) | 35 to 37
88 | Cc1cc(-c2ncc[nH]2)c(=O)[nH]n1 | 254 to 256
89 | CS(=O)(=O)c1ccc(C2CO2)cc1 (configuration not stated) | 97 to 99
90 | O=C(CC1CCOCC1)c1ccccc1 | 60 to 62
91 | NS(=O)(=O)c1ccc(OCCSCC(=O)O)cc1 | 196 to 198
92 | Nc1ncc(Br)cc1S(=O)(=O)N1CCCC1 | 169 to 171
93 | CCc1c(C(C)O)oc2ccccc12 (configuration not stated) | 66 to 68
94 | Nc1cc(C(=O)N2CCCC2)ccc1Cl | 137 to 139
95 | O=c1[nH]c2ccc(NCc3ccc(Cl)cc3)cc2[nH]1 | 264 to 266
96 | CCOC(=O)c1c(N)sc(C(=O)OC(C)(C)C)c1C | 108 to 110
97 | Cc1ccccc1-n1c(S)nnc1-c1ccncc1 | 280 to 282
98 | CC1(C)OCC(C)(C(=O)O)CO1 | 117 to 119
99 | Cc1noc(C)c1C(C)CC(=O)O (configuration not stated) | 95 to 97
100 | Cc1ccc2nc3ccccc3c(Cl)c2c1 | 121 to 123

Row | SMILES | melting point [°C]
101 | CN(C)S(=O)(=O)c1ccc(Cl)c(C(=O)O)c1 | 181 to 183
102 | CC(=O)c1ccc(NC(=O)c2ccc(C#N)cc2)cc1 | 228 to 230
103 | Nc1nc(Br)ccc1O | 153 to 155
104 | CNC(=O)CCCl | 63 to 65
105 | Cc1cccc(N2CCN(Cc3ccc(N)cc3)CC2)c1 | 103 to 105
106 | CC1CN(S(=O)(=O)CCN)CC(C)O1 (configuration not stated) | 73 to 75
107 | O=C1CNC(=O)N1CCCCl | 90 to 92
108 | Cc1c(Cl)nn2c(C(F)(F)F)nnc2c1C | 93 to 95
109 | CCOC(=O)c1cn[nH]c1S(N)(=O)=O | 171 to 173
110 | CC(C)n1c(Cl)nnc1-c1ccccc1 | 129 to 131
111 | CCOC(=O)c1c(C)n(C2CCCCC2)c2ccc(O)cc12 | 247 to 249
112 | O=c1[nH]cnc2c1nnn2-c1ccccc1 | 279 to 281
113 | O=c1[nH]c(-c2ccncc2)no1 | 259 to 261
114 | CC(C)(C)n1cnnc1SCC(=O)O | 161 to 163
115 | O=C(O)C1CCN(C(=O)c2cccnc2)CC1 | 188 to 190
116 | CCNc1ncc(C(=O)OC)s1 | 136 to 138
117 | O=C1C=C(c2ccccc2)CCC1 | 63 to 65
118 | O=C(O)c1cc(Cl)cc([N+](=O)[O-])c1 | 146 to 148
119 | O=c1[nH]cnc2c1oc1ccccc12 | 300 to 302
120 | NNC(=O)CCc1ccccc1O | 166 to 168
121 | c1nc(C2CCCCN2)n[nH]1 (configuration not stated) | 104 to 106
122 | CCOC(=O)c1c(C)nn(C)c1N | 101 to 103
123 | COc1ccccc1-c1ccc(C(C)=O)cc1 | 107 to 109
124 | NC(=S)CN1C(=O)CCC1=O | 156 to 158
125 | CC1CN(C(=O)c2ccc(N)cc2)CC(C)O1 (configuration not stated) | 174 to 176

Row | SMILES | melting point [°C]
126 | O=C(NCCO)c1ccc(Br)cn1 | 98 to 100
127 | O=C1NC(=O)C2CC12 (configuration not stated) | 94 to 96
128 | Sc1nc2cc(Cl)ccc2n1CCOc1ccccc1 | 182 to 184
129 | Nc1ncc(Cc2ccc(Cl)c(C(F)(F)F)c2)s1 | 70 to 72
130 | CS(=O)(=O)c1ccc(F)c(N)c1 | 69 to 71
131 | Cc1ncc(C(=O)O)c(Br)c1Cl | 129 to 131
132 | O=C(O)c1ccc(-c2nnco2)cc1 | 261 to 263
133 | c1ccc2c(c1)C1CCC2N1 | 92 to 94
134 | O=C(O)Cc1occc1C(=O)O | 204 to 206
135 | O=C(O)Cn1nc2n(c1=O)CCCCC2 | 229 to 231
136 | Cc1noc(-c2ccc(C)c([N+](=O)[O-])c2)n1 | 100 to 102
137 | O=C(O)CN1CCS(=O)(=O)CC1 | 179 to 181
138 | CC(=O)NCc1ccc(C(=O)O)o1 | 171 to 173
139 | NNC(=O)CCN1CCCC1 | 137 to 139
140 | COC(=O)c1ccc(S(=O)(=O)Cl)c(C)c1 | 51 to 53
141 | Cc1cc(C(=O)CCl)c(C)n1-c1nccs1 | 85 to 95
142 | O=C1CCC(c2ccc(F)cc2)=NN1 | 193 to 195
143 | Cn1cc(C=O)cn1 | 31 to 33
144 | O=Cc1c[nH]c(-c2ccccc2)n1 | 159 to 161
145 | COc1cccc(-c2nnc(N)s2)c1 | 156 to 158
146 | CC(C)(C)OC(=O)n1ccc(N)n1 | 129 to 131
147 | O=C(O)c1cc([N+](=O)[O-])c[nH]1 | 198 to 200
